What was measured:
Type in all cases: in vivo
[1] = test system: Culex quinquefasciatus strain P00; test: Culex quinquefasciatus test (CULXFA surface treatment & contact assay); conditions: surface concentration 20 mg/m^2, exposure 30 minutes, 24 hours after contact, read-out: efficacy (mortality)
Protocol: Culex Quinquefasciatus Test (CULXFA Surface Treatment & Contact Assay)
(§1) Solvent: Aceton+2000 ppm rapeseed oil methyl ester (RME)
(§2) In order to produce a sufficient, active ingredient containing solution it is necessary to solve the test compound in the solvent-mix (acetone at 2 mg/ml/RME 2000 ppm). This solution is pipetted onto a glazed tile and after evaporation of the acetone, adult mosquitoes of the species Culex quinquefasciatus strain P00 are placed onto the dried surface. The exposure time is 30 minutes.
(§3) Mortality in percent (%) is determined 24 hours after contact of the insects to the treated surface. 100% mortality means that all tested insects are dead, whereas 0% means that no insect died.

[2] = test system: Aedes aegypti strain MONHEIM; test: Aedes aegypti test (AEDSAE surface treatment & contact assay); conditions: 24 hours after contact, read-out: efficacy (mortality); for mortality at 20 mg/m2: surface concentration 20 mg/m^2, exposure 30 minutes
Protocol: Aedes Aegypti Test (AEDSAE Surface Treatment & Contact Assay)
as §1
as §2, with “Aedes aegypti” for “Culex quinquefasciatus”, “MONHEIM” for “P00”
as §3

Diabrotica balteata = Diabrotica balteata spray test; conditions: Diabrotica balteata, in Triticum aestivum, 168 h, after 7 days, larvae on wheat seeds, read-out: efficacy (seedlings grown up); for pest or weed control at 80 µg/disc, 250 g/ha: 80 μg/well (=250 g/ha); for pest or weed control at 160 µg/disc, 500 g/ha: 160 μg/well (=500 g/ha)
In short: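 Scoring at 7 days compares seedling growth with untreated, uninfested controls (100% = equal growth, 0% = none grown). Wheat seedlings germinated 1 day on agar, 5 per well, received a spray of test solution made in 1000 ppm emulsifier water. Each unit then received 10–20 beetle larvae.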

[3] = test system: Anopheles funestus strain FUMOZ-R; test: Anopheles funestus test (ANPHFU surface treatment & contact assay); conditions: 24 hours after contact, read-out: efficacy (mortality); for mortality at 4 mg/m2: surface concentration 4 mg/m^2, exposure 30 minutes; for mortality at 20 mg/m2: surface concentration 20 mg/m^2, exposure 30 minutes
Protocol: Anopheles funestus Test (ANPHFU Surface Treatment & Contact Assay)
as §1
as §2, with “Anopheles funestus” for “Culex quinquefasciatus”, “FUMOZ-R (Hunt et al., Med. Vet. Entomol. 2005 September; 19(3): 271-275)” for “P00”
as §3

Myzus persicae [4] = test: Myzus persicae oral test; conditions: 120 h, 4 ppm, after 5 days
Protocol: Solvent: 100 parts by weight acetone
To produce a suitable preparation of active compound, 1 part by weight of active compound is mixed with the stated amount of solvent, and the concentrate is diluted with water to the desired concentration.
50 μl compound solution is filled in microtiter plates and 150 μl IPL41 insect medium (33%+15% sugar) is added to obtain a total volume of 200 μl per well. Afterwards the plates are sealed with parafilm through which a mixed population of the green peach aphid (Myzus persicae) can suck on the compound preparation.
(§4) After 5 days mortality in % is determined. 100% means all aphids have been killed and 0% means none of the aphids have been killed.

Myzus persicae [5] = test: Myzus persicae spray test; conditions: foliar, 120 h, after 5 days, Chinese cabbage leaf disks
Protocol: Myzus persicae—Spray Test
To produce a suitable preparation of active compound, 1 part by weight of active compound is mixed with the stated amount of solvents and is diluted with water, containing an emulsifier concentration of 1000 ppm, to the desired concentration. Further test concentrations are prepared by dilution with emulsifier containing water.
Chinese cabbage (Brassica pekinensis) leaf disks infected with all instars of the green peach aphid (Myzus persicae), are sprayed with a preparation of the active ingredient of the desired concentration.
as §4

Spodoptera frugiperda = Spodoptera frugiperda spray test; conditions: 168 h, after 7 days, larvae on maize leaf sections
In short: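 Seven-day percent mortality of larvae feeding on Zea mays leaf sections sprayed with test compound. Dilutions were made in water holding 1000 ppm emulsifier.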

Ctenocephalides felis [6] = test: Ctenocephalides felis oral test; conditions: 48 h, 100 ppm in cattle blood, after 2 days, adult unfed cat fleas
In short: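 Compound dissolved in DMSO and diluted in cattle blood to test concentration, offered to ~20 unfed adult fleas via a parafilm-sealed blood chamber held at 37° C (fleas at room temperature). Kill recorded at 2 days as % mortality.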

Nezara viridula = Nezara viridula spray test; conditions: 96 h, after 4 days, larvae on barley plants
In short: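 Mortality (%) was assessed at day 4, from 0% (no bugs dead) to 100% (all dead). The spray solution was compound diluted to test concentration in water with 1000 ppm emulsifier and applied to barley carrying southern green stink bug larvae.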

Boophilus microplus = Boophilus microplus injection test; conditions: Rhipicephalus microplus, 168 h; 20 μg/animal injected into the abdomen; adult engorged female ticks; egg deposition after 7 days; read-out: efficacy (infertile eggs)
In short: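 Efficacy, from 0% (all eggs fertile) to 100% (all infertile), was scored on eggs laid by five engorged adult females. Each female was injected intra-abdominally with 1 μl of compound solution in DMSO. Fertile egg laying was checked at 7 days, with uncertain eggs kept until hatching at about 42 days.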

Ctenocephalides felis [7] = test: Ctenocephalides felis in-vitro contact test, adult cat flea; conditions: 5 μg/cm^2 (=500 g/ha), after 48 hours, adult cat fleas, read-out: efficacy (fleas dead or moribund)
Protocol: Ctenocephalides Felis—In-Vitro Contact Tests Adult Cat Flea 9 mg compound is solved in 1 ml acetone and diluted with acetone to the desired concentration. 250 μl of the test solution is filled in 25 ml glass test tubes and homogeneously distributed on the inner walls by rotation and tilting on a shaking device (2 h at 30 rpm). With a compound concentration of 900 ppm, an inner surface of 44.7 cm^2 and a homogeneous distribution, a dose of 5 μg/cm^2 is achieved. After the solvent has evaporated, each test tube is filled with 5-10 adult cat fleas (Ctenocephalides felis), closed with a perforated lid and incubated in a lying position at room temperature and relative humidity. After 48 hours efficacy is determined. The fleas are patted on the ground of the tubes and are incubated on a heating plate at 45-50° C. for at most 5 minutes. Immotile or uncoordinated moving fleas, which are not able to escape the heat by climbing upwards, are marked as dead or moribund. […] An efficacy of 100% means all fleas are dead or moribund; 0% means no fleas are dead or moribund.

Row | SMILES | mortality at 20 mg/m2 [1] [%] | mortality at 4 mg/m2 ([2]; surface concentration 4 mg/m^2, exposure 30 minutes) [%] | mortality at 20 mg/m2 [2] [%] | pest or weed control at 80 µg/disc, 250 g/ha (Diabrotica balteata) [%] | pest or weed control at 160 µg/disc, 500 g/ha (Diabrotica balteata) [%] | mortality at 4 mg/m2 [3] [%] | mortality at 20 mg/m2 [3] [%] | mortality at 4 ppm (Myzus persicae [4]) [%] | mortality at 500 g/ha (Myzus persicae [5]) [%] | mortality at 100 g/ha (Spodoptera frugiperda) [%] | mortality at 500 g/ha (Spodoptera frugiperda) [%] | mortality at 100 ppm (Ctenocephalides felis [6]) [%] | mortality at 100 g/ha (Myzus persicae [5]) [%] | mortality at 500 g/ha (Nezara viridula) [%] | pest or weed control at 0.02 mg (Boophilus microplus) [%] | pest or weed control at 5 µg/cm2 (Ctenocephalides felis [7]) [%] | mortality at 100 g/ha (Nezara viridula) [%]
1 | CNC(=O)c1ccc(-n2ncnc2[C@H](C)NC(=O)c2cc(Cl)cc(C(F)(F)F)c2)nc1 [Example I-038, 6-(5-{(1S)-1-[3-chloro-5-(trifluoromethyl)benzamido]ethyl}-1H-1,2,4-triazol-1-yl)-N-methylnicotinamide] | 90 to 100 | 90 to 100 | 90 to 100 | 100 | 100 | 85 to 100 | 90 to 100 | 100 | 90 | 100 | 100 | – | – | – | – | – | –
2 | C[C@H](NC(=O)c1cc(Cl)cc(C(F)(F)F)c1)c1ncnn1-c1ccc(N)cn1 [Example I-030, N-{(1S)-1-[1-(5-aminopyridin-2-yl)-1H-1,2,4-triazol-5-yl]ethyl}-3-chloro-5-(trifluoromethyl)benzamide] | 90 to 100 | – | 90 to 100 | 100 | 80 | – | 90 to 100 | 100 | – | 83 | 100 | 100 | 90 | 100 | 100 | – | –
3 | C[C@H](NC(=O)c1cc(Br)cc(C(F)(F)F)c1)c1ncnn1-c1ccc(C#N)cn1 [Example I-081] | – | – | – | 100 | 100 | – | – | 100 | – | 100 | 100 | – | – | 100 | – | 90 | 90
4 | COc1cc(Cl)cc(C(=O)N[C@@H](C)c2ncnn2-c2ccc(C#N)cn2)c1 [Example I-079] | – | – | – | 100 | – | – | – | – | – | – | 100 | 100 | – | 90 | – | 90 | 90
5 | C[C@H](NC(=O)c1cc(C(F)(F)F)cc(C(F)(F)F)c1)c1ncnn1-c1ncc(Cl)cc1F [Example I-088] | – | – | – | 100 | 100 | – | – | – | 90 | 100 | 100 | 100 | – | 100 | – | 100 | 90
6 | C[C@H](NC(=O)c1cc(Cl)cc(C(F)(F)F)c1)c1ncnn1C1CCS(=O)(=O)C1 (single isomer, unassigned) [Example I-024] | 90 to 100 | – | – | 100 | 100 | – | 90 to 100 | 100 | – | – | – | 100 | 90 | – | 100 | – | –
7 | C[C@H](NC(=O)c1cc(Cl)cc(C(F)(F)F)c1)c1ncnn1-c1ccc(C(=O)NC2CC2)cn1 [Example I-061] | – | – | – | 100 | 100 | – | – | 100 | – | 100 | 100 | 100 | – | 100 | 100 | 100 | –
8 | C[C@H](NC(=O)c1cc(Cl)cc(C(F)(F)F)c1)c1ncnn1-c1ncc(C(F)(F)F)s1 [Example I-085] | – | – | – | 100 | 100 | – | – | – | – | 100 | 100 | 100 | – | 100 | – | 100 | –
9 | C[C@H](NC(=O)c1cc(Cl)cc(C(F)(F)F)c1)c1ncnn1-c1ccc(SC(F)(F)F)cn1 [Example I-026, 3-chloro-5-(trifluoromethyl)-N-[(1S)-1-(1-{5-[(trifluoromethyl)sulfanyl]pyridin-2-yl}-1H-1,2,4-triazol-5-yl)ethyl]benzamide] | 90 to 100 | – | 90 to 100 | 100 | 100 | 85 to 100 | 90 to 100 | – | – | 100 | 100 | 100 | – | – | 100 | – | –
10 | C[C@H](NC(=O)c1cc(Cl)cc(C(F)(F)F)c1)c1ncnn1-c1ncc(Br)s1 [Example I-083, N-{(1S)-1-[1-(5-bromo-1,3-thiazol-2-yl)-1H-1,2,4-triazol-5-yl]ethyl}-3-chloro-5-(trifluoromethyl)benzamide] | – | – | – | 100 | 100 | – | – | – | – | 100 | 100 | 100 | – | – | – | 90 | –
11 | C[C@H](NC(=O)c1cc(Cl)cc(OC(F)(F)F)c1)c1ncnn1-c1ccc([N+](=O)[O-])cn1 [Example I-089] | – | – | – | 100 | 100 | – | – | 90 | 90 | 100 | 100 | 100 | 90 | 100 | – | 100 | 90
